Target: T1, BTK (Homo sapiens, UniProt Q06187)
T1 construct: The GM01501.3 cell line endogenously expresses BTK with a HiBiT fusion tag via CRISPR knock-in at its C-terminal region; endogenous in cells; host or cells: GM01501.3 (GM01501 cells engineered by CRISPR knock-in of HiBiT at the BTK locus)
Test: BTK degradation assay using the HiBiT Method (Nano-Glo HiBiT Lytic Assay, GM01501.3 cells)
Type: cell-based
Details: HiBiT Degradation on GM01501.3 BTK @ 6 hours
Procedure, shortened: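 Degradation read-out: HiBiT luminescence after lytic reagent addition, giving DC50. Compounds dosed from 10 μM in 11 half-log steps (duplicate) onto GM01501.3 cells, whose endogenous BTK carries a C-terminal HiBiT knock-in tag; 6 h exposure, 37 °C, 5% CO2.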

T1 sequence (Q06187 whole entry, the tested form may be a part): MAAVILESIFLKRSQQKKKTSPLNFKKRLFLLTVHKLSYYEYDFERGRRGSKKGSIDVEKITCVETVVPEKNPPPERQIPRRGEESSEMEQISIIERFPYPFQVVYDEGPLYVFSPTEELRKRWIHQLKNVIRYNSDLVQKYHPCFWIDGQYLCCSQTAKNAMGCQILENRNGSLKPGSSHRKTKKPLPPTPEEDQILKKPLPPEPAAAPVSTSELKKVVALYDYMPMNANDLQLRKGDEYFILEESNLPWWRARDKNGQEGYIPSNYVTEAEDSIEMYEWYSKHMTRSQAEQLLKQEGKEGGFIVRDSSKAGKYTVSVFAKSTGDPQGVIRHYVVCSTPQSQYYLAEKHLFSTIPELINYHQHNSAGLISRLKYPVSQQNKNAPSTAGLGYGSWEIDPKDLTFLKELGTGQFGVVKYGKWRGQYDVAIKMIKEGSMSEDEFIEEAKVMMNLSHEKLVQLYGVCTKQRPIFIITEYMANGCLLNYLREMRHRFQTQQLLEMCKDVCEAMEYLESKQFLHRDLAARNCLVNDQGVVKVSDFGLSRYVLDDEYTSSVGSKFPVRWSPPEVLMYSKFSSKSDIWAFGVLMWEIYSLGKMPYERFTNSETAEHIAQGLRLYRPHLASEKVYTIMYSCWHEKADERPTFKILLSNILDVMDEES

Row | SMILES | DC50
1 | Cc1cc(-c2ncnn3cc(-c4ccc(CN5CCC(c6ccc(NC7CCC(=O)NC7=O)cc6)CC5(C)C)cc4)cc23)ccc1CNC(=O)c1noc(C(C)(C)C)n1 (stereo not drawn) [Example 5, 5-tert-butyl-N-[[4-[6-[4-[[4-[4-[(2,6-dioxo-3-piperidyl)amino]phenyl]-2,2-dimethyl-1-piperidyl]methyl]phenyl]pyrrolo[2,1-f][1,2,4]triazin-4-yl]-2-methyl-phenyl]methyl]-1,2,4-oxadiazole-3-carboxamide] | < 100 nM
2 | Cc1cc(-c2ncnn3cc(-c4ccc(N5CCC(c6ccc(C7CCC(=O)NC7=O)cc6)CC5)cc4)cc23)ccc1CNC(=O)c1noc(C(C)(C)C)n1 (stereo not drawn) [Example 146, 5-tert-butyl-N-[[4-[6-[4-[4-[4-(2,6-dioxo-3-piperidyl)phenyl]-1-piperidyl]phenyl]pyrrolo[2,1-f][1,2,4]triazin-4-yl]-2-methyl-phenyl]methyl]-1,2,4-oxadiazole-3-carboxamide] | 100 to 500 nM
3 | CC(C)(C)c1nc(C(=O)NCc2ccc(-c3ncnn4cc(CCN5CCC(c6ccc(NC7CCC(=O)NC7=O)cc6)CC5)cc34)cc2F)no1 (stereo not drawn) [Example 120, 5-tert-butyl-N-[[4-[6-[2-[4-[4-[(2,6-dioxo-3-piperidyl)amino]phenyl]-1-piperidyl]ethyl]pyrrolo[2,1-f][1,2,4]triazin-4-yl]-2-fluoro-phenyl]methyl]-1,2,4-oxadiazole-3-carboxamide] | < 100 nM
4 | Cc1cc(-c2ncnn3cc(-c4ccc(CN5CCC(c6ccc(NC7CCC(=O)NC7=O)cc6)CC5)cc4)cc23)ccc1CNC(=O)c1ncc(C(C)(C)C)o1 (stereo not drawn) [Example 86, 5-tert-butyl-N-[[4-[6-[4-[[4-[4-[(2,6-dioxo-3-piperidyl)amino]phenyl]-1-piperidyl]methyl]phenyl]pyrrolo[2,1-f][1,2,4]triazin-4-yl]-2-methyl-phenyl]methyl]oxazole-2-carboxamide] | < 100 nM
5 | Cc1cc(-c2ncnn3cc(-c4cccc(CN5CCC(c6ccc(NC7CCC(=O)NC7=O)cc6)CC5)c4)cc23)ccc1CNC(=O)c1noc(C(C)(C)C)n1 (stereo not drawn) [Example 50, 5-tert-butyl-N-[[4-[6-[3-[[4-[4-[(2,6-dioxo-3-piperidyl)amino]phenyl]-1-piperidyl]methyl]phenyl]pyrrolo[2,1-f][1,2,4]triazin-4-yl]-2-methyl-phenyl]methyl]-1,2,4-oxadiazole-3-carboxamide] | < 100 nM
6 | Cc1cc(-c2ncnn3cc(CCN4CCC(c5ccc6c(N7CCC(=O)NC7=O)nn(C)c6c5)CC4)cc23)ccc1CNC(=O)c1cn(C(C)(C)C)nn1 [Example 271] | < 100 nM
7 | Cc1cc(-c2ncnn3cc(CCN4CCC(c5ccc6c(N7CCC(=O)NC7=O)nn(C)c6c5)CC4)cc23)ccc1CNC(=O)c1cnn(C(C)(C)C)c1 [Example 258, 1-(tert-butyl)-N-(4-(6-(2-(4-(3-(2,4-dioxotetrahydropyrimidin-1(2H)-yl)-1-methyl-1H-indazol-6-yl)piperidin-1-yl)ethyl)pyrrolo[2,1-f][1,2,4]triazin-4-yl)-2-methylbenzyl)-1H-pyrazole-4-carboxamide] | < 100 nM
8 | Cc1cc(-c2ncnn3cc(-c4ccc(CN5CCC(Oc6ccc(NC7CCC(=O)NC7=O)cc6)CC5)cc4)cc23)ccc1CNC(=O)c1noc(C(C)(C)C)n1 (stereo not drawn) [Example 201, 5-(tert-butyl)-N-(4-(6-(4-((4-(4-((2,6-dioxopiperidin-3-yl)amino)phenoxy)piperidin-1-yl)methyl)phenyl)pyrrolo[2,1-f][1,2,4]triazin-4-yl)-2-methylbenzyl)-1,2,4-oxadiazole-3-carboxamide] | < 100 nM
9 | Cc1cc(-c2ncnn3cc(-c4ccc(CN5CCC(c6ccc7c(N8CCC(=O)NC8=O)nn(C)c7c6)CC5)c(F)c4)cc23)ccc1CNC(=O)c1noc(C(C)(C)C)n1 [Example 245, 5-(tert-butyl)-N-(4-(6-(4-((4-(3-(2,4-dioxotetrahydropyrimidin-1(^2H)-yl)-1-methyl-1H-indazol-6-yl)piperidin-1-yl)methyl)-3-fluorophenyl)pyrrolo[2,1-f][1,2,4]triazin-4-yl)-2-methylbenzyl)-1,2,4-oxadiazole-3-carboxamide] | < 100 nM
10 | Cc1cc(-c2ncnn3cc(OCCN4CCC(c5ccc(NC6CCC(=O)NC6=O)cc5)CC4)cc23)ccc1CNC(=O)c1noc(C(C)(C)C)n1 (stereo not drawn) [Example 288, 5-(tert-butyl)-N-(4-(6-(2-(4-(4-((2,6-dioxopiperidin-3-yl)amino)phenyl)piperidin-1-yl)ethoxy)pyrrolo[2,1-f][1,2,4]triazin-4-yl)-2-methylbenzyl)-1,2,4-oxadiazole-3-carboxamide] | < 100 nM
11 | CC(C)(C)c1nc(C(=O)NCc2ccc(-c3ncnn4cc(-c5ccc(CN6CCOCC6Cc6ccc(OC7CCC(=O)NC7=O)cc6)cn5)cc34)cc2F)no1 (stereo not drawn) [Example 238, 5-(tert-butyl)-N-(4-(6-(5-((3-(4-((2,6-dioxopiperidin-3-yl)oxy)benzyl)morpholino)methyl)pyridin-2-yl)pyrrolo [2,1-f][1,2,4]triazin-4-yl)-2-fluorobenzyl)-1,2,4-oxadiazole-3-carboxamide] | < 100 nM
12 | Cc1cc(-c2ncnn3cc(-c4ccc(CN5CCC(c6ccc(NC7CCC(=O)NC7=O)cc6)CC5)cc4)cc23)ccc1CNC(=O)c1cc(C(C)(C)C)on1 (stereo not drawn) [Example 83, -tert-butyl-N-[[4-[6-[4-[[4-[4-[(2,6-dioxo-3-piperidyl)amino]phenyl]-1-piperidyl]methyl]phenyl]pyrrolo[2,1-f][1,2,4]triazin-4-yl]-2-methyl-phenyl]methyl]isoxazole-3-carboxamide] | < 100 nM
13 | Cc1c(NC(=O)c2cc3c(s2)CCCC3)cc(F)cc1-c1ncnn2cc(-c3ccc(CN4CCC(c5ccc(NC6CCC(=O)NC6=O)cc5)CC4)cc3)cc12 (stereo not drawn) [Example 152, N-(3-(6-(4-((4-(4-((2,6-dioxopiperidin-3-yl)amino)phenyl)piperidin-1-yl)methyl)phenyl)pyrrolo[2,1-f][1,2,4]triazin-4-yl)-5-fluoro-2-methylphenyl)-4,5,6,7-tetrahydrobenzo[b]thiophene-2-carboxamide] | < 100 nM
14 | Cc1cc(-c2ncnn3cc(-c4ccc(CN5CCC(c6ccc(N[C@@H]7CCC(=O)NC7=O)cc6F)CC5)cc4)cc23)ccc1CNC(=O)c1noc(C(C)(C)C)n1 [Example 26, (R)-5-(tert-butyl)-N-(4-(6-(4-((4-(4-((2,6-dioxopiperidin-3-yl)amino)-2-fluorophenyl)piperidin-1-yl)methyl)phenyl)pyrrolo[2,1-f] [1,2,4]triazin-4-yl)-2-methylbenzyl)-1,2,4-oxadiazole-3-carboxamide] | < 100 nM
15 | Cc1cc(-c2ncnn3cc(COCCN4CCC(c5ccc(NC6CCC(=O)NC6=O)cc5)CC4)cc23)ccc1CNC(=O)c1noc(C(C)(C)C)n1 (stereo not drawn) [Example 143, 5-tert-butyl-N-[[4-[6-[2-[4-[4-[(2,6-dioxo-3-piperidyl)amino]phenyl]-1-piperidyl]ethoxymethyl]pyrrolo[2,1-f][1,2,4]triazin-4-yl]-2-methyl-phenyl]methyl]-1,2,4-oxadiazole-3-carboxamide] | < 100 nM
16 | Cc1cc(-c2ncnn3cc(-c4ccc(CN5CCC(c6ccc(NC7CCC(=O)NC7=O)cc6)CC5)cc4)cc23)ccc1CNC(=O)c1ccc(Cl)cc1 (stereo not drawn) [Example 62, 4-chloro-N-[[4-[6-[4-[[4-[4-[(2,6-dioxo-3-piperidyl)amino]phenyl]-1-piperidyl]methyl]phenyl]pyrrolo[2,1-f][1,2,4]triazin-4-yl]-2-methyl-phenyl]methyl]benzamide] | < 100 nM
17 | Cc1cc(-c2ncnn3cc(N4CCN(C(=O)CCc5ccccc5CNC(=O)c5ccc(OC6CCC(=O)NC6=O)cc5)CC4)cc23)ccc1CNC(=O)c1noc(C(C)(C)C)n1 (stereo not drawn) [Example 183, 5-(tert-butyl)-N-(4-(6-(4-(3-(2-((4-((2,6-dioxopiperidin-3-yl)oxy)benzamido)methyl)phenyl)propanoy 1)piperazin-1-yl)pyrrolo[2,1-f][1,2,4]triazin-4-y1)-2-methylbenzyl)-1,2,4-oxadiazole-3-carboxamide] | < 100 nM
18 | Cc1cc(-c2ncnn3cc(-c4ccc(CN5CCC(c6ccc(NC7CCC(=O)NC7=O)cc6)CC5)cc4)cc23)ccc1CNC(=O)c1ccc(C(F)(F)F)cc1 (stereo not drawn) [Example 73, N-[[4-[6-[4-[[4-[4-[(2,6-dioxo-3-piperidyl)amino]phenyl]-1-piperidyl]methyl]phenyl]pyrrolo[2,1-f][1,2,4]triazin-4-yl]-2-methyl-phenyl]methyl]-4-(trifluoromethyl)benzamide] | < 100 nM
19 | O=C1CCC(Nc2ccc(C3CCN(Cc4ccc(-c5cc6c(-c7ccc(CNC(=O)c8ccc(C(F)F)cc8)c(F)c7)ncnn6c5)cc4)CC3)nc2)C(=O)N1 (stereo not drawn) [Example 102, 4-(difluoromethyl)-N-[[4-[6-[4-[[4-[5-[(2,6-dioxo-3-piperidyl)amino]-2-pyridyl]-1-piperidyl]methyl]phenyl]pyrrolo[2,1-f][1,2,4]triazin-4-yl]-2-fluoro-phenyl]methyl]benzamide] | < 100 nM
20 | Cc1cc(-c2ccnc3cn(CCCCN4CCC(c5ccc(NC6CCC(=O)NC6=O)cc5)CC4)nc23)ccc1CNC(=O)c1noc(C(C)(C)C)n1 (stereo not drawn) [Example 224, 5-tert-butyl-N-[[4-[2-[4-[4-[4-[(2,6-dioxo-3-piperidyl)amino]phenyl]-1-piperidyl]butyl]pyrazolo[4,3-b]pyridin-7-yl]-2-methyl-phenyl]methyl]-1,2,4-oxadiazole-3-carboxamide] | < 100 nM
21 | Cc1cc(-c2ncnn3cc(-c4ccc(CN5CCC(c6ccc(NC7CCC(=O)NC7=O)cc6)CC5)cc4)cc23)ccc1CNC(=O)c1cnc(C(C)(C)C)o1 (stereo not drawn) [Example 85, 2-tert-butyl-N-[[4-[6-[4-[[4-[4-[(2,6-dioxo-3-piperidyl)amino]phenyl]-1-piperidyl]methyl]phenyl]pyrrolo[2,1-f][1,2,4]triazin-4-yl]-2-methyl-phenyl]methyl]oxazole-5-carboxamide] | < 100 nM

— US20240287076A1, “COMPOUNDS FOR TARGETING DEGRADATION OF BRUTON'S TYROSINE KINASE” (BIOGEN MA INC., priority 2021, published 2024)
